# According to patent US20060008891A1, “Cathepsin G-related peptides as modulators of formylpeptide receptors (FPR)” (The Government of USA as repersented by the Secretary, …, priority 2004, published 2006):
# Entries after “also recorded” stand apart in the source; their conditions may differ.
# T1: FPR (Homo sapiens, UniProt P21462)
# T1 construct: expressed in transfected cells; host or cells: Rat basophilic leukemia (RBL) cells, stably transfected (ETFR cells); gift of H. Ali and R. Snyderman, Duke University
# T1 sequence (P21462 1-350): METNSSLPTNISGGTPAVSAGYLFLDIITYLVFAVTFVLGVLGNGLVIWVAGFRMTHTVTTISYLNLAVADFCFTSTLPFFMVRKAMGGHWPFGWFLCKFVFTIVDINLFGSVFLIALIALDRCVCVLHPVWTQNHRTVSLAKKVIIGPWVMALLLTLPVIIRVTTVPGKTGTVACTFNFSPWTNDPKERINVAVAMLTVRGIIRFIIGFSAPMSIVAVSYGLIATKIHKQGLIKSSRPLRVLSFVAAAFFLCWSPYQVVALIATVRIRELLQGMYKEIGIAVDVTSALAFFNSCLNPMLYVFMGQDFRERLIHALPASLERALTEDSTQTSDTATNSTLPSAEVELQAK
# B1: α1-ACT: α1-antichymotrypsin, CaG inhibitor (protein, UniProt P01011 24-423, looked up)
# Alpha-1-antichymotrypsin: HPNSPLDEENLTQENQDRGTHVDLGLASANVDFAFSLYKQLVLKAPDKNVIFSPLSISTALAFLSLGAHNTTLTEILKGLKFNLTETSEAEIHQSFQHLLRTLNQSSDELQLSMGNAMFVKEQLSLLDRFTEDAKRLYGSEAFATDFQDSAAAKKLINDYVKNGTRGKITDLIKDLDSQTMMVLVNYIFFKAKWEMPFDPQDTHQSRFYLSKKKWVMVPMMSLHHLTIPYFRDEELSCTVVELKYTGNASALFILPDQDKMEEVEAMLLPETLKRWRDSLEFREIGELYLPKFSISRDYNLNDILLQLGIEEAFTSKADLSGITGARNLAVSQVVHKAVLDVFEEGTEASAATAVKITLLSALVETRTIVRFNRPFLMIIVPTDTQNIFFMSKVTNPKQA
# Experiments:
# [1] = target: T1, FPR; assay: Chemotaxis assay, RBL cells transfected with FPR (ETFR cells); assay type: cell-based; settings: for inhibition of ETFR cell chemotaxis to CaG: CaG 10 μg/ml; for inhibition of ETFR cell chemotaxis to fMLF: fMLF 100 nM
# Method: (§1) Human PBMC were isolated from leukopacks obtained through the courtesy of Transfusion Medicine Department, National Institutes of Health Clinical Center (Bethesda, Md.) by Ficoll-Hypaque density gradient centrifugation. Monocytes were purified from human PBMC by Percoll gradient to yield>90% pure preparations. […] H. Ali and R. Snyderman, Duke University (Durham, N.C.) and maintained in the presence of 0.8 mg/ml geneticin (G418, Life Technologies, Rockville, Md.) in DMEM supplemented with 10% FCS. B. Chemotaxis assay Migration of phagocytes and ETFR cells was assessed using a 48-well microchemotaxis chamber (Neuroprobe, Cabin John, Md.) as previously described (Hu et al. (2001) J Leukoc Biol 70 15512). Briefly, different concentrations of stimulants were placed in the wells of the lower compartment of the chamber, and 50 μl cells (1.5×10^6 cells/ml for monocyte and neutrophil, 1×10^6 ETFR cells/ml) were added to the wells of the upper compartment. The lower and upper compartments were separated by either a 5-μm (for monocyte) or a 10-μm pore size, collagen-coated (for ETFR cells) polycarbonate filter (Osmonics, Livermore, Calif.). After incubation at 37° C. in humidified air with 5% CO2 (60 min for neutrophils, 90 min for monocytes, 4.5 h for ETFR cells), the filter was removed and stained, and the cells migrating across the filter were counted with light microscopy. The results are presented as the mean number of cells (±SD) in three high power fields (HPFs). For analysis of cross-desensitization, cells were pretreated with indicated reagents for 1 h at 37° C. After thorough washing with cold medium (RPMI 1640, 1% BSA), the cells were resuspended and assayed. To measure the effect of various signaling inhibitors, unless otherwise indicated, the cells were pre-incubated at 37° C. for 60 min with the inhibitors, and were then added to the upper wells of the chemotaxis chamber.
# [2] = test system: neutrophils; assay: Chemotaxis assay, neutrophils; assay type: cell-based, human; settings: human neutrophils
# Method: as §1
# [3] = test system: PKCα/β; assay: PKCα/β translocation in ETFR cells; assay type: cell-based, rat; settings: 100 nM fMLF, 10 μg/ml CaG or PMA 500 nM, 37° C. 10 min
# Method: (§2) ETFR cells were seeded on coverslips and cultured overnight in DMEM containing 1% FCS at 37° C. After further culture in FCS-free DMEM for 3 h, cells were treated with stimulants for indicated time periods at 37° C. and were then fixed in 4% paraformaldehyde for 5 min at room temperature. The cells were permeabilized with 0.2% Tween 20 for 30 min at 4° C. and the reaction was blocked with 5% goat normal serum for 15 min at room temperature. The rabbit anti-PKCα/β, δ, and ξ, antibodies (1:1000 in DPBS) were applied separately for 1 h at room temperature. After three rinses with DPBS, the cells were stained with FITC-labeled goat anti-rabbit secondary antibody (PharMingen, 1:1000 in DPBS) for 1 h at room temperature. The coverslips were mounted with an anti-fade, water-based mounting medium with Propidium Iodide (PI) (Vector Lab, Burlingamem, Calif.) and analyzed under a laser scanning confocal fluorescence microscope (Zeiss LSM510 NLO Meta, Jena, Germany). Excitation wavelengths 488 (for FITC) and 568 (for PI) nm were used to generate fluorescence emission in green and red, respectively.
# [4] = test system: PKC isozymes; assay: PKC translocation in parental RBL cells; assay type: cell-based, rat; settings: 100 nM fMLF, 10 μg/ml CaG or PMA 500 nM, 37° C. 10 min
# [5] = test system: PKCδ; assay: PKCδ translocation in ETFR cells; assay type: cell-based, rat; settings: 100 nM fMLF, 10 μg/ml CaG or PMA 500 nM, 37° C. 10 min
# Method: as §2, with “The cells were permeabilized with 0.2% Tween 20 for 30 min at 4° C. and the reaction was blocked with 5% goat normal serum for 15 min at room temperature.” left out, “Germany).” for “Germany). Excitation wavelengths 488 (for FITC) and 568 (for PI) nm were used to generate fluorescence emission in green and red, respectively.”
# [6] = test system: PKCζ; assay: PKCζ translocation in ETFR cells (confocal microscopy); assay type: cell-based, rat; settings: 100 nM fMLF, 10 μg/ml CaG or PMA 500 nM, 37° C. 10 min
# Method: as §2
# [7] = test system: monocytes; assay: Chemotaxis assay, monocytes; assay type: cell-based, human
# Method: as §1, with “For analysis of cross-desensitization, cells were pretreated with indicated reagents for 1 h at 37° C.” left out
# [8] = target: T1, FPR; assay: Chemotactic activity for ETFR cells after α1-ACT treatment of stimulants and supernatants; assay type: cell-based; settings: α1-ACT 0.75 μM
# Method: ETFR and RBL cells (10×10^6/ml) were incubated with medium or 10 μg/ml CaG at 37° C. for 1 h. Supernatants were collected and measured for chemotactic activity for un-treated ETFR cells.
# as §1
# Cleavage by proteases is required for regulation of the function of a number of molecules in triggering proper physiological processes. […] Therefore, we examined whether interaction of FPR with CaG might cleave FPR to generate a new defacto agonist for this receptor, such as in the model of thrombin activation of its receptors. ETFR cells were cultured with CaG under the conditions that are sufficient for cleavage of other proteins by CaG (Kinlough-Rathbone et al. (1999) Thromb Res 95, 31524). The supernatant was collected and examined for its chemotactic activity for FPR. […]
molecule,measurement,setting,value
"CN(C)CCCn1cc(C2=C(c3c[nH]c4ccccc34)C(=O)NC2=O)c2ccccc21 [Gö 6850, bisindolylmaleimide I]",inhibition of ETFR cell chemotaxis to CaG,[1],limited effect on fMLF- and CaG-induced ETFR cell migration
same,inhibition of ETFR cell chemotaxis to fMLF,[1],limited effect on fMLF- and CaG-induced ETFR cell migration
same,inhibition of neutrophil chemotaxis to CaG,[2],did not have any effect
same,inhibition of neutrophil chemotaxis to IL-8,[2],did not have any effect
same,inhibition of neutrophil chemotaxis to fMLF,[2],did not have any effect
CCCCCCCCCCCCCC(=O)O[C@@H]1[C@@H](C)[C@@]2(O)[C@@H](C=C(CO)C[C@]3(O)C(=O)C(C)=C[C@@H]23)[C@@H]2C(C)(C)[C@]12OC(C)=O [PMA],translocation of PKCα/β,[3],"activated these PKC isozymes in both ETFR and RBL cells; also recorded: induced translocation of PKCζ, PKCα/β, and PKCδ in ETFR and RBL cells"
same,PKC translocation in parental RBL cells,[4],"activated these PKC isozymes in both ETFR and RBL cells; also recorded: induced translocation of PKCζ, PKCα/β, and PKCδ in ETFR and RBL cells"
same,translocation of PKCδ,[5],"induced translocation of PKCζ, PKCα/β, and PKCδ in ETFR and RBL cells"
same,translocation of PKCζ,[6],"activated these PKC isozymes in both ETFR and RBL cells; also recorded: induced translocation of PKCζ, PKCα/β, and PKCδ in ETFR and RBL cells"
"CN[C@@H]1C[C@H]2O[C@@](C)([C@@H]1OC)n1c3ccccc3c3c4c(c5c6ccccc6n2c5c31)C(=O)NC4 [Staurosporine, reference compound]",inhibition of ETFR cell chemotaxis to CaG,[1],abrogated chemotaxis of ETFR cells induced by either CaG or fMLF
same,inhibition of ETFR cell chemotaxis to fMLF,[1],abrogated chemotaxis of ETFR cells induced by either CaG or fMLF
"C/C=C/C[C@@H](C)[C@@H](O)[C@H]1C(=O)N[C@@H](CC)C(=O)N(C)CC(=O)N(C)[C@@H](CC(C)C)C(=O)N[C@@H](C(C)C)C(=O)N(C)[C@@H](CC(C)C)C(=O)N[C@@H](C)C(=O)N[C@H](C)C(=O)N(C)[C@@H](CC(C)C)C(=O)N(C)[C@@H](CC(C)C)C(=O)N(C)[C@H](C(C)C)C(=O)N1C [CsH, Cyclosporin H, reference compound]",inhibition of monocyte chemotaxis to CaG,[7]; CaG 10 μg/ml,abolished monocyte chemotaxis to CaG and fMLF
same,inhibition of monocyte chemotaxis to fMLF,[7]; fMLF 10 nM,abolished monocyte chemotaxis to CaG and fMLF
B1,effect on chemotactic activity of supernatant from CaG-digested ETFR cells,[8]; 15 min room temperature,completely abolished
same,effect on chemotactic activity of supernatants from CaG-treated RBL cells,[8]; 15 min room temperature,inhibited by α1-ACT
same,effect on chemotactic activity of CaG,[8]; CaG 10 μg/ml,significantly reduced chemotactic activity
same,effect on chemotactic activity of fMLF,[8]; fMLF 100 nM,did not affect the chemotactic activity of fMLF for FPR
